Patent publication US20260297042A1, “BIARYLAMIDE DERIVATIVES AND THEIR USE AS PKMYT1 INHIBITORS” (CANCER RESEARCH TECHNOLOGY LIMITED, priority 2023, published 2026)

Tests used:
Human PKMYT1 = biological target: T1, Human PKMYT1 (Homo sapiens, UniProt Q99640); experiment: PKMYT1 biochemical ADP-Glo enzymatic assay; conditions: ADP-Glo; 15 nM PKMYT1 kinase domain, 500 µM ATP, 60 minutes at 26° C.; banded
T1 construct: Human PKMYT1 75-362 was cloned as a TEV cleavable 6xHis fusion; 6xHis (TEV cleavable) (cleaved yes); made in house; host or cells: bacterial cells
T1 sequence (Q99640 75-362): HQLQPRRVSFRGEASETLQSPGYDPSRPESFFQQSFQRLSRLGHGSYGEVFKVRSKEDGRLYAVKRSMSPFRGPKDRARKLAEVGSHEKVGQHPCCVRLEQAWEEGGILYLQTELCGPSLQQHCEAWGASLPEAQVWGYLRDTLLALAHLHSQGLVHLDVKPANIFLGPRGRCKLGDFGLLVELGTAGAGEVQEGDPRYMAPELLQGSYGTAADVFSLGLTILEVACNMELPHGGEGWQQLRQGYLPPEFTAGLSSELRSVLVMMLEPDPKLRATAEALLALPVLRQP
Outline: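 Measures inhibition of PKMYT1 autonomous ATP hydrolysis: bacterially expressed human enzyme (75-362, tag cleaved) at 15 nM with 500 µM ATP for 60 min at 26 °C, then ADP-Glo Max detection. IC50s accepted only when replicates agreed within 3-fold and curve r2 exceeded 0.9.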

WEE1 = biological target: T2, WEE1 (Homo sapiens, UniProt P30291); experiment: Selectivity versus WEE1 assay (ADP-Glo enzymatic assay); assay type: biochemical; conditions: banded; for IC50: ADP-Glo, 15 nM WEE1, 60 minutes at 26° C.; for PKMYT1 vs. WEE1 selectivity: fold difference in selectivity for PKMYT1 over WEE1, ">N" = at least in this band but could be higher
T2 construct: purchased Thermo Fisher PR7373A
Outline: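 Same format as the PKMYT1 assay: WEE1 at 15 nM final with 30 µM ATP, 60 min at 26° C, ADP-Glo luminescence detection, IC50 by dose-response fitting.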

[1] = tested on: h-TERT-RPE1 TP53−/− parental cells; experiment: Nuclear count cell proliferation assay, parental (wild type) h-TERT-RPE1 TP53−/− cells; assay type: cell-based; conditions: hTERT-RPE1, h-TERT-RPE1 TP53−/− parental (Wt), around 6 population doublings, banded, read-out: RPE Wt GI50
Procedure: (§1) h-TERT-RPE1 TP53−/− and CCNE1 high expressing clones (clone cell lines 7 and 15) were treated with test compounds dissolved in DMSO at serially diluted concentrations alongside a DMSO only control for around 6 population doublings time. Cells were then fixed with 4% Paraformaldehyde and the cell nuclei were stained with DAPI (Sigma D9542). Images covering each well were acquired by an Opera Phenix® High-Content Screening System (PerkinElmer). Image analysis was performed using Harmony® high-content analysis software (PerkinElmer). Data analysis was performed using Microsoft Excel® and GI50 estimates generated with GraphPad Prism v9. Percent nuclear count was compared to vehicle control wells and used to measure inhibition of proliferation.

[2] = tested on: h-TERT-RPE1 TP53−/− CCNE1 high expressing clone cell line 15 (CL15); experiment: Nuclear count cell proliferation assay, CCNE1 high expressing clone cell line 15 (CL15) of h-TERT-RPE1 TP53−/−; assay type: cell-based; conditions: banded; for Selectivity Ratio Wt vs. CL15: GI50 ratio RPE Wt vs. CL15, >N = at least in this band; for GI50: h-TERT-RPE1 TP53−/− CCNE1 high clone CL15, nuclear count, around 6 population doublings, read-out: RPE CL15 GI50
Procedure: as §1

OVCAR3 cells = experiment: Cancer cell line proliferation assay, nuclear count, OVCAR3 (CCNE1-amplified); assay type: cell-based; conditions: banded; for Selectivity ratio KYSE30 GI50 vs. OVCAR3 GI50: >N = at least in this band; for GI50: Homo sapiens, OVCAR-3, CCNE1-amplified ovarian cancer, nuclear count
Procedure: as §1
(§2) Cancer cell lines with either normal (KYSE-30) or amplified CCNE1 expression (OVCAR3-ovarian cancer) were evaluated for their sensitivity to PKMYT1 inhibitors in a nuclear count assay as described above for h-TERT-RPE1 TP53−/− and a CCNE1 high expressing clones, taking into account the slower cell cycle division times of these lines.

KYSE-30 cells [3] = experiment: Cancer cell line proliferation assay, nuclear count, KYSE-30 (normal CCNE1); assay type: cell-based; conditions: Homo sapiens, normal CCNE1 expression, banded, read-out: KYSE30 GI50
Procedure: as §1, §2

OVCAR 3 cells = experiment: Cancer cell line proliferation assay, ATP-based cell viability (Cell Titre Glow), OVCAR 3 (CCNE1-amplified); conditions: KYSE30 (normal CCNE1) GI50 vs. OVCAR 3 (CCNE1-amplified) GI50
Outline: (§3)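 Cells were treated with PKMYT1 inhibitors, then proliferation was assessed with CellTiter-Glo and luminescence read. GI50 values were fitted from the resulting data.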

KYSE-30 cells [4] = experiment: Cancer cell line proliferation assay, ATP-based cell viability (Cell Titre Glow), KYSE-30 (normal CCNE1); conditions: Homo sapiens, KYSE-30 cells (normal CCNE1), concentration that achieves 50% cell growth proliferation inhibition, read-out: KYSE30 Gl50
Outline: as §3

[5] = tested on: h-TERT-RPE1 TP53−/− CCNE1 high expressing clone cell line 7 (CL7); experiment: Nuclear count cell proliferation assay, CCNE1 high expressing clone cell line 7 (CL7) of h-TERT-RPE1 TP53−/−; assay type: cell-based; conditions: banded; for Selectivity Ratio Wt vs. CL7: GI50 ratio RPE Wt vs. CL7, >N = at least in this band; for GI50: hTERT-RPE1, h-TERT-RPE1 TP53−/− CCNE1 high clone CL7, nuclear count, around 6 population doublings, read-out: RPE CL7 GI50
Procedure: as §1

[6] = biological target: T3, Cellular PKMYT1 Biomarker CDK1 pT14 (Homo sapiens, UniProt Q99640); experiment: Inhibition of cellular PKMYT1 biomarker CDK1 pT14 in OVCAR 3 cells (immunoblot); assay type: cell-based; conditions: 20 hours incubation
T3 construct: read-out CDK1 phospho-T14 immunoblot
T3 sequence (Q99640 1-499): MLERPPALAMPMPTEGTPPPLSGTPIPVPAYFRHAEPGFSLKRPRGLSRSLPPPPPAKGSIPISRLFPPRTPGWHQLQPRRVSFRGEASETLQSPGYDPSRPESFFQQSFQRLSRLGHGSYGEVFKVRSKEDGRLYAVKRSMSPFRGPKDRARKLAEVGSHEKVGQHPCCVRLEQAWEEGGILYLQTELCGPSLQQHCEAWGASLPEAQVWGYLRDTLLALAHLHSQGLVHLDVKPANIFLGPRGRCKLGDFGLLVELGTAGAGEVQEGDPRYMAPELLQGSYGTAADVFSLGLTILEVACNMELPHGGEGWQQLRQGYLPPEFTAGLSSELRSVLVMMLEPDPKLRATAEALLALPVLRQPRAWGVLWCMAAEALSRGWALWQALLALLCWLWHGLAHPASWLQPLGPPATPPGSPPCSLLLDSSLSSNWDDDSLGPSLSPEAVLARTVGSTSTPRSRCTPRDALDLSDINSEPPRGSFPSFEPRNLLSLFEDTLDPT
Outline: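 Confluent OVCAR 3 cells treated with a compound concentration range for 20 h at 37 °C. Lysates analysed by automated capillary immunoblot for CDK1 phospho-T14, with vinculin, fluorescence detection; IC50 by regression.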

T2 sequence (P30291 whole entry): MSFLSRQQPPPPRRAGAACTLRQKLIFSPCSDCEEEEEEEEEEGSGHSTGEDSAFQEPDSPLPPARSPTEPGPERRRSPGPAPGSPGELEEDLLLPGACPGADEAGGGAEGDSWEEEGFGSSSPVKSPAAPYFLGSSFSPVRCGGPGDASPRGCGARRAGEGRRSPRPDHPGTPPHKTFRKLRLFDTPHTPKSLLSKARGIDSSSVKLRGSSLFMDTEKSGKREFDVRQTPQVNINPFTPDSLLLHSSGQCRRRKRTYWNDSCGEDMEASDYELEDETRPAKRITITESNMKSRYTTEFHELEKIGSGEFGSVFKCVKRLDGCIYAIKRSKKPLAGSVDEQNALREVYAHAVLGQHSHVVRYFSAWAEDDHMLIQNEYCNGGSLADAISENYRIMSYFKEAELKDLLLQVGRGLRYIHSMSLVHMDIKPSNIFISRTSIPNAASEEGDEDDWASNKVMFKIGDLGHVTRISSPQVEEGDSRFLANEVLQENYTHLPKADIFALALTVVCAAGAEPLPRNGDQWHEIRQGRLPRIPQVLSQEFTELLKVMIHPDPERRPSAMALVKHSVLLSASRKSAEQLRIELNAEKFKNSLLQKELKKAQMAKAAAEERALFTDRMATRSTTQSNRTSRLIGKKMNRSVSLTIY

Row | Structure (SMILES) | IC50 (Human PKMYT1) [nM] | IC50 (WEE1) [µM] | PKMYT1 vs. WEE1 selectivity (WEE1) | GI50 (OVCAR3 cells) [nM] | IC50 [6] [nM] | GI50 [1] [µM] | Selectivity Ratio Wt vs. CL15 [2] | GI50 [2] [nM] | Selectivity ratio KYSE30 GI50 vs. OVCAR3 GI50 (OVCAR3 cells) | GI50 (KYSE-30 cells [3]) [µM] | Selectivity ratio KYSE30 Gl50 vs. OVCAR3 Gl50 (OVCAR 3 cells) | GI50 (KYSE-30 cells [4]) [µM] | Selectivity Ratio Wt vs. CL7 [5] | GI50 [5] [nM]
1 | Cc1ccc(O)c(C)c1NC(=O)c1cnc(NC2CC2)s1 [BAA-061, 2-(cyclopropylamino)-N-(3-hydroxy-2,6-dimethyl-phenyl)thiazole-5-carboxamide] | 50 to 1000 | > 11 | X (100-<1000 fold) |  |  | 3 to 10 | X (3-<10 fold) | 500 to 3000 |  |  |  |  |  | 
2 | CCOC(=O)c1cn(C)nc1Nc1ncc(C(=O)Nc2c(C)ccc(O)c2C)s1 [BAA-129, ethyl 3-[[5-[(3-hydroxy-2,6-dimethyl-phenyl)carbamoyl]thiazol-2-yl]amino]-1-methyl-pyrazole-4-carboxylate] | 50 to 1000 | > 11 | >Y (1000-5000 fold) |  |  | > 10 | X (3-<10 fold) | 500 to 3000 |  |  |  |  |  | 
3 | Cc1ccc(O)c(C)c1NC(=O)c1cnc(NCCCNC(=O)OC(C)(C)C)s1 [BAA-071, tert-butyl N-[3-[5-[(3-hydroxy-2,6-dimethyl-phenyl)carbamoyl]thiazol-2-yllamino]propyl]carbamate] | 50 to 1000 | > 11 | >X (100-<1000 fold) |  |  | > 10 |  |  |  |  |  |  | X (3-<10 fold) | 500 to 3000
4 | Cc1ccc(O)c(C)c1NC(=O)c1cnc(Nc2ccn(CC(=O)NC3CCN(C(=O)OC(C)(C)C)CC3)n2)s1 [BAA-152] | < 50 | 1 to 11 | X (100-<1000 fold) |  |  | > 10 | X (3-<10 fold) | 500 to 3000 |  |  |  |  |  | 
5 | CCNC(=O)Cn1cc(C)c(Nc2ncc(C(=O)Nc3c(C)ccc(O)c3C)s2)n1 [BAA-206, 2-[[1-[2-(ethylamino)-2-oxo-ethyl]-4-methyl-pyrazol-3-yl]amino]-N-(3-hydroxy-2,6-dimethyl-phenyl)thiazole-5-carboxamide] | < 50 | 1 to 11 | Y (1000-5000 fold) | 500 to 3000 |  |  |  |  | >Y (10-30 fold) | > 10 |  |  |  | 
6 | Cc1ccc(O)c(C)c1NC(=O)c1cnc(Nc2ccn(CC(=O)N3CC4CCC(C3)N4)n2)s1 [BAA-230, 2-((1-(2-(3,8-diazabicyclo[3.2.1]octan-3-yl)-2-oxoethyl)-1H-pyrazol-3-yl)amino)-N-(3-hydroxy-2,6-dimethylphenyl)thiazole-5-carboxamide] | < 50 | > 11 | X (100-<1000 fold) |  |  | > 10 |  |  |  |  |  |  | X (3-<10 fold) | 3000 to 10000
7 | Cc1ccc(O)c(C)c1NC(=O)c1cnc(Nc2cc(C(F)(F)F)nn2C)s1 [BAA-046, N-(3-hydroxy-2,6-dimethyl-phenyl)-2-[[2-methyl-5-(trifluoromethyl)pyrazol-3-yl]amino]thiazole-5-carboxamide] | 50 to 1000 | > 11 | >X (100-<1000 fold) | 500 to 3000 |  |  |  |  | X (3-<10 fold) | 3 to 10 |  |  |  | 

Further lines, with some results ahead:

Row | IC50 (Human PKMYT1) [nM] | IC50 (WEE1) [µM] | PKMYT1 vs. WEE1 selectivity (WEE1) | GI50 (OVCAR3 cells) [nM] | IC50 [6] [nM] | Structure (SMILES) | GI50 [1] [µM] | Selectivity Ratio Wt vs. CL15 [2] | GI50 [2] [nM] | Selectivity ratio KYSE30 GI50 vs. OVCAR3 GI50 (OVCAR3 cells) | GI50 (KYSE-30 cells [3]) [µM] | Selectivity ratio KYSE30 Gl50 vs. OVCAR3 Gl50 (OVCAR 3 cells) | GI50 (KYSE-30 cells [4]) [µM] | Selectivity Ratio Wt vs. CL7 [5] | GI50 [5] [nM]
8 | < 50 | 1 to 11 | X (100-<1000 fold) | < 500 |  | Cc1cn(CC(=O)N2CCCC2)nc1Nc1ncc(C(=O)Nc2c(C)ccc(O)c2C)s1 [BAA-208, N-(3-hydroxy-2,6-dimethyl-phenyl)-2-[[4-methyl-1-(2-oxo-2-pyrrolidin-1-yl-ethyl)pyrazol-3-yl]amino]thiazole-5-carboxamide] |  |  |  | Z (>30 fold) | > 10 | Y (>20 fold) | > 5 |  | 
9 | 50 to 1000 | > 11 | X (100-<1000 fold) |  |  | Cc1ccc(O)c(C)c1NC(=O)c1cnc(Nc2ccn(CC(=O)NCCN(C)C)n2)s1 [BAA-160] | 3 to 10 |  |  |  |  |  |  | X (3-<10 fold) | 500 to 3000
10 | 50 to 1000 | > 11 | >X (100-<1000 fold) | 500 to 3000 | 100 to 1000 | Cc1ccc(O)c(C)c1NC(=O)c1cnc(Nc2cc(C(F)(F)F)n(C)n2)s1 [BAA-047] |  |  |  | X (3-<10 fold) | 3 to 10 |  |  |  | 
11 | < 50 | > 11 | Y (1000-5000 fold) |  |  | Cc1ccc(O)c(C)c1NC(=O)c1cnc(Nc2ccn(CC(=O)N3CCC(C)(C)CC3)n2)s1 [BAA-137] | 0.5 to 3 |  |  |  |  |  |  | X (3-<10 fold) | 500 to 3000
